From US6706509B2, “Oncoprotein protein kinase” (The Regents of the University of California, priority 1993, dated 2004)

What was measured:
Type in all cases: cell-based, human
jun-B = experiment: Northern blot of jun-B expression in Jurkat cells; settings: 40 minutes; for effect on jun-B induction by TPA: A23187 1 μg/ml or CsA 100 ng/ml
Procedure: (§1) Exponentially growing Jurkat cells (10^6/ml) grown in complete RPMI medium was pretreated with CsA for 15 minutes when applicable, then subjected to various treatments for another 40 minutes. Total cytoplasmic RNA was extracted as previously described (Angel, et al., Cell, 49:729-739, 1987). 10 μg RNA was denatured by incubating with glyoxal for 60 minutes at 55° C. and fractionated on a 1% agarose gel in phosphate buffer. The fractionated RNA was blotted to Zetabind Nylon membrane (CUNO Labs) and hybridized to ^32P-labelled cDNA probes specific for c-jun, jun-B, jun-D, c-fos, α-tubulin and IL-2.
During the first stage of T lymphocyte activation, early response genes are rapidly included (Crabtree, Science, 243:355,361, 1989; Zipfel, et al., Mol Cell Bio., 9:1041-1048, 1989). Induction of jun and fos genes during activation of the Jurkat T cell line was investigated. Two different co-stimulatory paradigms were used, one employing TPA and the Ca^2+ ionophore A23187, and the second based on simultaneous stimulation of the TCR complex with an antibody to its CD3 component (OKT3; Van Wauwe, et al., J. Immunol., 124:2708-2713, 1980) and stimulation of the CD28 auxiliary receptor with an anti-CD28 antibody (9.3; Hansen, et al., Immunogenetics, 10:247-260, 1993; June, et al., Immunol. Today, 11:211-216, 1990). Total cytoplasmic RNA was extracted from Jurkat cells that were incubated with 50 ng/ml TPA (T), 1 μg/ml A23187 (A) or 100 ng/ml cyclosporin A (CsA) for 40 minutes, either alone or in combinations, as indicated. After fractionation of 10 μg samples on an agarose gel and transfer to nylon membrane, the level of c-jun, jun-B, jun-D, c-fos and α-tubulin expression was determined by hybridization to random primed cDNA probes.

c-jun = experiment: Northern blot of c-jun expression in Jurkat cells
Procedure: as §1
(§2) During the first stage of T lymphocyte activation, early response genes are rapidly included (Crabtree, Science, 243:355,361, 1989; Zipfel, et al., Mol Cell Bio., 9:1041-1048, 1989). […] After fractionation of 10 μg samples on an agarose gel and transfer to nylon membrane, the level of c-jun, jun-B, jun-D, c-fos and α-tubulin expression was determined by hybridization to random primed cDNA probes.
(§3) Second, Jurkat cells were incubated with 10 μg/ml soluble anti-CD3 (OKT3), 2 μg/ml soluble anti-CD28 (9.3) or a combination of 50 ng/ml TPA and 1 μg/ml A23817 (T/A) as indicated for 40 minutes. Total cytoplasmic RNA was isolated and 10 μg samples were analyzed as described above using c-jun, jun-D and c-fos probes. […]

[1] = tested on: JNK (55 kD and 46 kD forms); experiment: In-gel kinase assay of JNK in Jurkat whole cell extracts; settings: for JNK activation, in-gel kinase assay, agent alone: TPA 50 ng/ml or A23187 1 μg/ml
Procedure: In-gel kinase assay was performed as described by Kameshita and Fujisawa, Anal. Biochem., 183:139, (1989) with slight modifications. Briefly, c-Jun binding proteins were isolated from whole cell extracts by using GSH-agarose beads containing 80 μg GST-cJun as described above. Proteins were eluted in Laemlli sample buffer and resolved on 10% SDS-polyacrylamide gel, which was polymerized in the absence or presence of GST-cJun (40 μg/ml). After electrophoresis, the gel was washed twice, 30 minutes each time with 100 ml of 20% 2-propanol, 50 mM HEPES pH 7.6 to remove SDS. After the gel was washed twice, 30 minutes each time, with 100 ml of buffer A (50 mM HEPES pH 7.6, 5 mM β-mercaptoethanol), it was incubated in 200 ml of 6M urea in buffer A at room temperature for 1 hr, followed by serial incubations in buffer A containing 0.05% Tween 20 and either 3M, 1.5M or 0.75M urea. After the gel was washed several times, 1 hr each time, with 100 ml of buffer A containing 0.05% Tween 20 at 4° C., it was incubated with kinase buffer containing 50 μM ATP and 5 μCi/ml γ-^32P-ATP at 30° C. for 1 hour. After the reaction, the gel was washed with 100 ml of 5% tricholoroacetic acid and 1% sodium pyrophosphate at room temperature several times, followed by drying and autoradiography.
JNK exists in two forms, 46 kD and 55 kD in size, both of which are activated by external stimuli (Hibi, et al., supra, 1993; Deng, et al., supra, 1993). […] Whole cell extracts (WCE) of Jurkat cells incubated with TPA (T, 50 ng/ml), A23187 (A, 1 μg/ml) or CsA (100 ng/ml) for 15 minutes, alone or in combination, were separated by SDS-PAGE (100 μg protein/lane) on gels that were cast in the absence or presence of GST-cJun (1-223). The gels were subjected to renaturation protocol and incubated in kinase buffer containing γ-^32P-ATP. The protein bands corresponding to the 55 kD and 46 kD forms of JNK are indicated.
The regulation of JNK in response to T cell activation with anti-CD3 and anti-CD28 antibodies was examined. Jurkat cells (1×10^7) were incubated for 15 minutes with either normal mouse serum, 1 μg/ml anti-CD3 and/or 2 μg/ml anti-CD28, in the absence or presence of 100 ng/ml CsA, as indicated. WCE were prepared and 100 μg samples were analyzed for JNK activation using the in-gel kinase assay, as described above.

c-fos = experiment: Northern blot of c-fos expression in Jurkat cells
Procedure: as §1, §2, §3

ERK2 = ERK2 MBP-kinase activity after anti-ERK2 immunoprecipitation, Jurkat cells
Procedure: WCE (50 μg) of Jurkat cells treated as described above were incubated with GSTcJun(1-223)-GSH agarose beads and assayed for JNK activity using the solid-state kinase assay. The same WCE (20 μg) were immunoprecipitated with anti-ERK2 antibodies and assayed for MBP-kinase activity.
WCE (50 μg) of Jurkat cells treated as described in Panel A with various stimuli alone or their combinations were incubated with GSTcJun(1-223)-GSH agarose beads and assayed for JNK activity using solid-state kinase assay. The same samples (20 μg) were also assayed for MBP-kinase activity as described in FIG. 16B.

cyclosporin A [CsA]
effect on jun-B induction by TPA (jun-B): not affected | effect on synergistic induction of c-jun by both costimulatory paradigms (c-jun; CsA 100 ng/ml with TPA+A23187 or anti-CD3+anti-CD28, 40 minutes): partially inhibited | JNK activation, in-gel kinase assay, CsA added to TPA+A23187 ([1]; CsA 100 ng/ml, 15 minutes): blocked this costimulatory effect | effect on maximal induction of c-fos by TPA+A23187 (c-fos; CsA 100 ng/ml, 40 minutes): not inhibited | ERK2 activation by anti-CD3, effect of CsA (ERK2; CsA 100 ng/ml): nor was it inhibited

CNc1ccc2oc(C[C@H]3O[C@@]4(CC[C@H]3C)O[C@H]([C@H](C)C(=O)c3ccc[nH]3)[C@H](C)C[C@H]4C)nc2c1C(=O)O [A23187]
effect on jun-B induction by TPA (jun-B): not affected | JNK activation, in-gel kinase assay, costimulation with TPA ([1]; A23187 1 μg/ml plus TPA 50 ng/ml, 15 minutes): potentiated its activation by TPA | JNK activation, in-gel kinase assay, agent alone ([1]; Jurkat, 15 minutes): did not activate JNK

CCCCCCCCCCCCCC(=O)O[C@@H]1[C@@H](C)[C@@]2(O)[C@@H](C=C(CO)C[C@]3(O)C(=O)C(C)=C[C@@H]23)[C@H]2C(C)(C)[C@]12OC(C)=O [TPA]
jun-B expression, agent alone (jun-B; TPA 50 ng/ml): induced | JNK activation, in-gel kinase assay, agent alone ([1]; Jurkat, 15 minutes): activated | ERK2 activation, suboptimal dose of TPA by itself (ERK2): partial activation of ERK2

anti-CD3: anti-CD3 monoclonal antibody OKT3
c-jun expression, agent alone (c-jun; soluble anti-CD3, 40 minutes): induction | JNK activity, in-gel kinase assay, simultaneous incubation with both antibodies ([1]; Jurkat, 1 μg/ml anti-CD3 and 2 μg/ml anti-CD28, 15 minutes): strong synergistic activation of both forms | c-fos expression, agent alone (c-fos; soluble anti-CD3, 40 minutes): induction
